Test results as given in patent US9580487B2, “Method of treating stomach or bowel-related disorders by administering glucagon-like-peptide-2 (GLP-2) analogues” (Zealand Pharma A/S, priority 2005, dated 2017).
Entries after “also recorded” stand apart in the source; their conditions may differ. No end group written: not given here.

Tests used:
[1] = test system: male Sprague Dawley rats treated with indomethacin; experiment: Indomethacin-induced small intestinal ulcers (model of Crohn's disease), extent of ulceration; assay type: in vivo; settings: for Estimated extent of ulceration: indomethacin alone 333±21 mm^2; for Effect on ulceration compared with prednisolone: highest dose 200 nmol/kg vs prednisolone 10 mg/kg
Method: FIG. 13 is a graph illustrating the effect of compound 1848 (SEQ ID NO:36) on small intestinal ulcers induced by indomethacin. Male Sprague Dawley rats were treated with vehicle (saline; group 1) or indomethacin (7 mg/kg s.c., once daily for two days; groups 2-7). Indomethacin was given alone (group 2) or in combination with prednisolone (10 mg/kg s.c.; group 3) or with 8, 40, or 200 nmol/kg compound 1848 (SEQ ID NO:36) s.c. […] (groups 4-6). Finally, one group of rats was treated with combination treatment of prednisolone (10 mg/kg s.c.) and compound 1848 (SEQ ID NO:36), 200 nmol/kg s.c. once daily (group 7). Treatment with compound 1848 (SEQ ID NO:36) was initiated 4 days prior to indomethacin and continued during the two days of indomethacin treatment. On day 3, rats were sacrificed and upon necropsy, the small intestine was gently flushed with 10% formalin and filled with formalin for a period of 5 minutes, after which the intestine was cut open along the antimesenteric margin and suspended on a polypropylene plate. Any remaining intestinal contents were carefully removed with a pair of tweezers. After fixation for another 24 hours at room temperature, the tissue was rinsed in Milli-Q water and surface-stained for 20 minutes with Alcian Green 3BX (Chroma) prepared as a 0.5% solution in 1% acetic acid (Bie & Berntsen). After removal of excess staining solution with Milli-Q water the tissue preparation was transferred to 70% alcohol and analyzed using a stereomicroscope at low magnification (×7). Starting at the pylorus, the small intestine was scanned and the shape (circular vs. linear) and size (circular ulcers: diameter, linear ulcers: length×width) of all ulcers was measured using a standard ruler (resolution: 0.5 mm). An ulcer was defined as an area, which lacked epithelial surface. In healing ulcers only the area that still lacked epithelial surface was regarded an ulcer even if the villus structure was still missing in a larger area. All analysis was performed in a blinded manner. […] Treatment with prednisolone caused a significant reduction in the extent of ulceration by app. 29%. […] Values are means±SEM. * P<0.05 vs. indomethacin (group 2). ^#P<0.05 vs. prednisolone (group 3).
Crohn's disease is a chronic disease that causes episodic inflammation of the small intestine. The effect of the GLP-2 analogue 1848 (SEQ ID NO:36) on small intestinal inflammation in an indomethacin-induced model of Crohn's disease was investigated. We have previously shown that administration of indomethacin (s.c, once daily for 2 days) induces small intestinal inflammation characterized by ulcerations and, increases in the pro-inflammatory cytokine, tumour necrosis factor alpha (TNF-α).
To determine the effect of ZP1848 (SEQ ID NO:36) on ulceration 1848 (SEQ ID NO:36) (8, 40 and 200 nmol/kg, s.c, twice daily (9:00 and 16:00)) was given for 4 days prior to the first dose of indomethacin and for an additional two days together with indomethacin. The corticosteroid, prednisolone (10 mg/kg, p.o) was used as a positive control since corticosteroids are commonly used in the treatment of active inflammation in Crohn's disease. In addition a group of animals were given both 1848 (SEQ ID NO:36) (200 nmol/kg) and prednisolone to determine the effects of a combination treatment. Twenty four hours after the last dose of 1848 (SEQ ID NO:36) had been given the animals were sacrificed the small intestine was gently flushed clean and fixed. To determine the extent of ulceration the intestine was cut open along the antimesenteric margin, suspended on a polypropylene plate and surface-stained with Alcian Green 3BX. Starting at the pylorus, the small intestine was scanned and the shape (circular vs. linear) and size (circular ulcers: diameter, linear ulcers: length×width) of all ulcers was measured using a standard ruler (resolution: 0.5 mm). An ulcer was defined as an area, which lacked epithelial surface. […]

Sprague Dawley rats = experiment: Crypt-villus length and muscularis thickness in the small intestine of SD rats; assay type: in vivo
Method: FIG. 12 is a set of graphs showing the effect of compound 1846 (SEQ ID NO:34) on epithelial crypt-villus height (FIG. 12A) and muscular thickness (FIG. 12B) in the jejunum (i.e., mid section of the small intestine). Sprague Dawley rats were treated intravenously with compound 1846 (SEQ ID NO:34) (0.62, 3.41 or 6.2 mg/kg once daily) for 5 days (n=6/dose group). Then the animals were sacrificed and small intestinal biopsies (1 cm) were collected 25 cm distal from the pyloric sphincter. The biopsies were fixed, embedded in paraffin, sectioned and stained with haematoxylin and eosin. Stained sections were examined under a microscope and crypt depth, villus height, crypt-villus length and muscularis thickness measured. […] Values are means±SEM. * P<0.05, relative to vehicle controls (0 mg/kg/d).
The effect of the clinical candidate, 1846 (SEQ ID NO:34), on crypt-villus length and muscularis thickness in the small intestine of SD rats was investigated. 1846 (SEQ ID NO:34) (0.62, 3.41 or 6.2 mg/kg/day, n=6 rats/dose group) was administered as an i.v. bolus, once daily for five consecutive days. Twenty-four hours after the last dose had been administered the rats were sacrificed and a 1 cm biopsy was excised from the jejunum (30 cm distal from the gastric duodenal junction) and from the ileum (30 cm proximal from the ileocaecal junction) for histological processing.

Substance | Estimated extent of ulceration ([1]; 8 nmol/kg s.c.) [mm^2] | Estimated extent of ulceration ([1]; 40 nmol/kg s.c.) [mm^2] | Ulceration: addition of prednisolone to high dose compound ([1]; 200 nmol/kg plus prednisolone 10 mg/kg) | Estimated extent of ulceration ([1]; 200 nmol/kg s.c.) [mm^2] | Prevention of indomethacin-induced ulceration (in words) ([1]; 8, 40, 200 nmol/kg) | Effect on ulceration compared with prednisolone [1] | Reduction of total ulceration ([1]; highest dose (200 nmol/kg) vs indomethacin alone) [%] | Muscular thickness of the jejunum (Sprague Dawley rats; 0.62, 3.41 or 6.2 mg/kg i.v. once daily for 5 days) | Crypt-villus length (Sprague Dawley rats; 0.62, 3.41 or 6.2 mg/kg i.v. once daily for 5 days, jejunum (and ileum)) | Muscularis thickness in the ileum (Sprague Dawley rats; 0.62, 3.41 or 6.2 mg/kg/day i.v. for five days)
[Gly2, Glu3, Thr5, Ser8, Leu10, Ala11,16,24,28]hGLP-2(1-33)-(Lys)6-NH2 (HGEGTFSSELATILDALAARDFIAWLIATKITDKKKKKK-NH2) [Compound 1848] | 230±12 | 216±17 | did not produced any additional effect | 178±17 | prevented indomethacin-induced ulceration in a dose-dependent fashion | more effective than the positive control, prednisolone | ~50 |  |  | 
[Gly2, Glu3, Ser8,11, Leu10, Ala16,24,28]hGLP-2(1-33)-(Lys)6-NH2 (HGEGSFSSELSTILDALAARDFIAWLIATKITDKKKKKK-NH2) [Compound 1846] |  |  |  |  |  | greater than the effect of prednisolone |  | no effect on the muscular thickness of the jejunum | dose-dependent increases in crypt-villus length; also recorded: dose-dependently increased mean crypt-villus length in the jejunum and ileum | dose-dependently increased
